In the supplement of paper PMC11451515:

Tests used:
Settings in all cases: 48 h
NOMO1 [1] = experiment: AUC of viability dose-response curve (% viability x log10 dose units); higher = less sensitive
Outline: (§1)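 Leukemia cells adapted to each medium were seeded at 500 or 1000 cells/well in 1536-well plates and dosed with library compounds in DMSO at 11 threefold doses from 47 μM to 0.79 nM for 48 h at 37°C. CellTiter-Glo One luminescence was normalised per plate to DMSO and cell-free wells, then fitted with a four-parameter log-logistic model over log10 doses. Area under the curve was taken from this fit by the trapezoidal rule, with curves above full viability scaled and curves failing quality control removed.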

P12-Ichikawa [2] = experiment: as above
Outline: as §1

SEM cells [3] = experiment: as above
Outline: as §1

NOMO1 [4] = experiment: cell viability relative to DMSO control; higher = less cytotoxic
Outline: (§2)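 Library compounds in DMSO were pin-dosed into 1536-well plates (5 μl) holding NOMO1 or SEM (500 cells/well) or P12-Ichikawa (1000 cells/well) leukemia cells, across an 11-point threefold series of 47 μM to 0.79 nM. Each cell line had been adapted for at least four passages in each medium. CellTiter-Glo One luminescence was read after 48 h at 37°C. Viability is the per-plate percentage relative to DMSO wells, with cell-free wells as background.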

P12-Ichikawa [5] = experiment: as above
Outline: as §2

SEM cells [6] = experiment: as above
Outline: as §2

c1ccc(-c2nn3c(c2-c2ccnc4cc(OCCN5CCOCC5)ccc24)CCC3)nc1
AUC of viability dose-response curve
Settings | NOMO1 [1] | P12-Ichikawa [2] | SEM cells [3]
HPLM + 10% dialyzed FBS | 450 | 438 | 458
RPMI 5 mM glucose + 10% FBS | 467 | 420 | 468
RPMI 5 mM glucose + 10% dialyzed FBS | 471 | 448 | 472

cell viability [%]
Settings | NOMO1 [4] | P12-Ichikawa [5] | SEM cells [6]
HPLM + 10% dialyzed FBS, 0.000781 µM | 122 | 120 | 77.4
HPLM + 10% dialyzed FBS, 0.00234 µM | 126 | 114 | 106
HPLM + 10% dialyzed FBS, 0.00702 µM | 113 | 111 | 121
HPLM + 10% dialyzed FBS, 0.0211 µM | 129 | 119 | 126
HPLM + 10% dialyzed FBS, 0.0632 µM | 133 | 112 | 126
HPLM + 10% dialyzed FBS, 0.19 µM | 119 | 112 | 129
HPLM + 10% dialyzed FBS, 0.569 µM | 124 | 97 | 115
HPLM + 10% dialyzed FBS, 1.71 µM | 108 | 109 | 128
HPLM + 10% dialyzed FBS, 5.12 µM | 117 | 103 | 145
HPLM + 10% dialyzed FBS, 15.4 µM | 96.1 | 94.9 | 127
HPLM + 10% dialyzed FBS, 46.1 µM | 70.6 | 84.5 | 110
RPMI 5 mM glucose + 10% FBS, 0.000781 µM | 86 | 112 | 102
RPMI 5 mM glucose + 10% FBS, 0.00234 µM | 99.6 | 117 | 125
RPMI 5 mM glucose + 10% FBS, 0.00702 µM | 107 | 123 | 132
RPMI 5 mM glucose + 10% FBS, 0.0211 µM | 105 | 115 | 125
RPMI 5 mM glucose + 10% FBS, 0.0632 µM | 111 | 112 | 143
RPMI 5 mM glucose + 10% FBS, 0.19 µM | 108 | 96.2 | 134
RPMI 5 mM glucose + 10% FBS, 0.569 µM | 108 | 89.8 | 122
RPMI 5 mM glucose + 10% FBS, 1.71 µM | 99.2 | 106 | 138
RPMI 5 mM glucose + 10% FBS, 5.12 µM | 97.8 | 119 | 144
RPMI 5 mM glucose + 10% FBS, 15.4 µM | 91.3 | 73 | 123
RPMI 5 mM glucose + 10% FBS, 46.1 µM | 91.7 | 74.6 | 91.1
RPMI 5 mM glucose + 10% dialyzed FBS, 0.000781 µM | 66.2 | 110 | 68.3
RPMI 5 mM glucose + 10% dialyzed FBS, 0.00234 µM | 116 | 120 | 122
RPMI 5 mM glucose + 10% dialyzed FBS, 0.00702 µM | 102 | 122 | 137
RPMI 5 mM glucose + 10% dialyzed FBS, 0.0211 µM | 108 | 119 | 132
RPMI 5 mM glucose + 10% dialyzed FBS, 0.0632 µM | 106 | 112 | 135
RPMI 5 mM glucose + 10% dialyzed FBS, 0.19 µM | 108 | 113 | 127
RPMI 5 mM glucose + 10% dialyzed FBS, 0.569 µM | 109 | 112 | 125
RPMI 5 mM glucose + 10% dialyzed FBS, 1.71 µM | 101 | 108 | 131
RPMI 5 mM glucose + 10% dialyzed FBS, 5.12 µM | 98.5 | 102 | 117
RPMI 5 mM glucose + 10% dialyzed FBS, 15.4 µM | 92.8 | 99.3 | 129
RPMI 5 mM glucose + 10% dialyzed FBS, 46.1 µM | 83.4 | 84.8 | 82.2

CC(=O)SCC(Cc1ccccc1)C(=O)NCC(=O)OCc1ccccc1 (centres undefined)
AUC of viability dose-response curve
Settings | NOMO1 [1] | P12-Ichikawa [2] | SEM cells [3]
HPLM + 10% dialyzed FBS | 390 | 439 | 451
RPMI 5 mM glucose + 10% FBS | 358 | 445 | 443
RPMI 5 mM glucose + 10% dialyzed FBS | 351 | 418 | 442

cell viability [%]
Settings | NOMO1 [4] | P12-Ichikawa [5] | SEM cells [6]
HPLM + 10% dialyzed FBS, 0.000781 µM | 88.4 | 93.4 | 86.1
HPLM + 10% dialyzed FBS, 0.00234 µM | 85.1 | 92.2 | 79.1
HPLM + 10% dialyzed FBS, 0.00702 µM | 102 | 103 | 93.3
HPLM + 10% dialyzed FBS, 0.0211 µM | 104 | 104 | 96.4
HPLM + 10% dialyzed FBS, 0.0632 µM | 102 | 103 | 99
HPLM + 10% dialyzed FBS, 0.19 µM | 106 | 102 | 103
HPLM + 10% dialyzed FBS, 0.569 µM | 107 | 105 | 105
HPLM + 10% dialyzed FBS, 1.71 µM | 88.9 | 103 | 97.4
HPLM + 10% dialyzed FBS, 5.12 µM | 63.9 | 101 | 108
HPLM + 10% dialyzed FBS, 15.4 µM | 14.7 | 66.9 | 108
HPLM + 10% dialyzed FBS, 46.1 µM | 9.71 | 8.75 | 102
RPMI 5 mM glucose + 10% FBS, 0.000781 µM | 81.7 | 105 | 84.9
RPMI 5 mM glucose + 10% FBS, 0.00234 µM | 82.6 | 93.6 | 77.2
RPMI 5 mM glucose + 10% FBS, 0.00702 µM | 80.3 | 106 | 97.1
RPMI 5 mM glucose + 10% FBS, 0.0211 µM | 93.4 | 102 | 94
RPMI 5 mM glucose + 10% FBS, 0.0632 µM | 84.3 | 99.9 | 96
RPMI 5 mM glucose + 10% FBS, 0.19 µM | 89.4 | 98.2 | 92.5
RPMI 5 mM glucose + 10% FBS, 0.569 µM | 95.2 | 101 | 98.3
RPMI 5 mM glucose + 10% FBS, 1.71 µM | 95 | 100 | 99.8
RPMI 5 mM glucose + 10% FBS, 5.12 µM | 72.1 | 98.6 | 95.7
RPMI 5 mM glucose + 10% FBS, 15.4 µM | 15.1 | 54 | 91.2
RPMI 5 mM glucose + 10% FBS, 46.1 µM | 10.7 | 59.3 | 90.1
RPMI 5 mM glucose + 10% dialyzed FBS, 0.000781 µM | 78.2 | 85.3 | 77.4
RPMI 5 mM glucose + 10% dialyzed FBS, 0.00234 µM | 74.3 | 91.2 | 77.6
RPMI 5 mM glucose + 10% dialyzed FBS, 0.00702 µM | 86.7 | 96.2 | 82.1
RPMI 5 mM glucose + 10% dialyzed FBS, 0.0211 µM | 85.6 | 94.3 | 104
RPMI 5 mM glucose + 10% dialyzed FBS, 0.0632 µM | 96.9 | 104 | 109
RPMI 5 mM glucose + 10% dialyzed FBS, 0.19 µM | 98.4 | 95.5 | 104
RPMI 5 mM glucose + 10% dialyzed FBS, 0.569 µM | 95.6 | 101 | 115
RPMI 5 mM glucose + 10% dialyzed FBS, 1.71 µM | 76.8 | 103 | 114
RPMI 5 mM glucose + 10% dialyzed FBS, 5.12 µM | 65.6 | 90.1 | 108
RPMI 5 mM glucose + 10% dialyzed FBS, 15.4 µM | 13.4 | 34.7 | 116
RPMI 5 mM glucose + 10% dialyzed FBS, 46.1 µM | 13.2 | 50.3 | 96.9

COc1ccc2cccc(CCNC(C)=O)c2c1
AUC of viability dose-response curve
Settings | NOMO1 [1] | P12-Ichikawa [2] | SEM cells [3]
HPLM + 10% dialyzed FBS | 434 | 470 | 451
RPMI 5 mM glucose + 10% FBS | 415 | 468 | 453
RPMI 5 mM glucose + 10% dialyzed FBS | 440 | 460 | 452

cell viability [%]
Settings | NOMO1 [4] | P12-Ichikawa [5] | SEM cells [6]
HPLM + 10% dialyzed FBS, 0.000781 µM | 111 | 104 | 105
HPLM + 10% dialyzed FBS, 0.00234 µM | 114 | 100 | 104
HPLM + 10% dialyzed FBS, 0.00702 µM | 95.7 | 102 | 107
HPLM + 10% dialyzed FBS, 0.0211 µM | 123 | 102 | 111
HPLM + 10% dialyzed FBS, 0.0632 µM | 104 | 96 | 109
HPLM + 10% dialyzed FBS, 0.19 µM | 87.9 | 103 | 97.6
HPLM + 10% dialyzed FBS, 0.569 µM | 122 | 99 | 112
HPLM + 10% dialyzed FBS, 1.71 µM | 104 | 104 | 114
HPLM + 10% dialyzed FBS, 5.12 µM | 101 | 102 | 109
HPLM + 10% dialyzed FBS, 15.4 µM | 89.7 | 92.7 | 49.2
HPLM + 10% dialyzed FBS, 46.1 µM | 85 | 89.6 | 105
RPMI 5 mM glucose + 10% FBS, 0.000781 µM | 90.8 | 98.3 | 110
RPMI 5 mM glucose + 10% FBS, 0.00234 µM | 91.6 | 104 | 83.4
RPMI 5 mM glucose + 10% FBS, 0.00702 µM | 86.5 | 105 | 107
RPMI 5 mM glucose + 10% FBS, 0.0211 µM | 92.9 | 109 | 100
RPMI 5 mM glucose + 10% FBS, 0.0632 µM | 84.7 | 103 | 105
RPMI 5 mM glucose + 10% FBS, 0.19 µM | 84.6 | 107 | 90
RPMI 5 mM glucose + 10% FBS, 0.569 µM | 85.6 | 104 | 109
RPMI 5 mM glucose + 10% FBS, 1.71 µM | 94.7 | 101 | 106
RPMI 5 mM glucose + 10% FBS, 5.12 µM | 83.1 | 99.6 | 110
RPMI 5 mM glucose + 10% FBS, 15.4 µM | 83.2 | 97.8 | 40.7
RPMI 5 mM glucose + 10% FBS, 46.1 µM | 80.1 | 95.9 | 95
RPMI 5 mM glucose + 10% dialyzed FBS, 0.000781 µM | 94.7 | 97.6 | 107
RPMI 5 mM glucose + 10% dialyzed FBS, 0.00234 µM | 96.6 | 103 | 106
RPMI 5 mM glucose + 10% dialyzed FBS, 0.00702 µM | 105 | 110 | 101
RPMI 5 mM glucose + 10% dialyzed FBS, 0.0211 µM | 82.5 | 96.8 | 111
RPMI 5 mM glucose + 10% dialyzed FBS, 0.0632 µM | 91.3 | 104 | 120
RPMI 5 mM glucose + 10% dialyzed FBS, 0.19 µM | 97.4 | 104 | 94.8
RPMI 5 mM glucose + 10% dialyzed FBS, 0.569 µM | 97.2 | 97.4 | 94.7
RPMI 5 mM glucose + 10% dialyzed FBS, 1.71 µM | 90.2 | 93.8 | 104
RPMI 5 mM glucose + 10% dialyzed FBS, 5.12 µM | 86 | 94.3 | 124
RPMI 5 mM glucose + 10% dialyzed FBS, 15.4 µM | 93.7 | 98.2 | 37.4
RPMI 5 mM glucose + 10% dialyzed FBS, 46.1 µM | 79.6 | 89.6 | 101
